assay: Partition coefficient (logD) (aqueous phase 0.1 N HCl); assay type: physicochemical; details: 0.1 N HCl (aqueous phase); read-out: logD

Row | logD | SMILES
1 | -1.33 | COCCOc1cccc(Cc2cnc(N)nc2N)c1
2 | 1.52 | Nc1ncc(Cc2ccc3c(c2)OCO3)c(N)n1
3 | 1.6 | COc1cc(Cc2cnc(N)nc2N)cc(OC)c1
4 | 2.52 | CCOc1cc(Cc2cnc(N)nc2N)cc(OCC)c1
5 | 1.6 | COc1cc(Cc2cnc(N)nc2N)cc(OC)c1SC [METIOPRIM]
6 | 2.55 | CCCCCCCCOc1cc(Cc2cnc(N)nc2N)ccc1OC
7 | 0.26 | Nc1ccc(Cc2cnc(N)nc2N)cc1
8 | 1.51 | COc1cc(Cc2cnc(N)nc2N)cc(OC)c1N(C)C [ADITOPRIM]
9 | 2.04 | COc1cc(Cc2cnc(N)nc2N)cc(OC)c1Br [BRODIMOPRIM]
10 | 1.34 | COc1ccc(Cc2cnc(N)nc2N)cc1
11 | 1 | COc1ccc(Cc2cnc(N)nc2N)cc1OC [DIAVERIDINE]
12 | 1.55 | CCc1cc(Cc2cnc(N)nc2N)cc(CC)c1CC
13 | -1.81 | COCCOc1c(OC)cc(Cc2cnc(N)nc2N)cc1OC [TETROXOPRIM]

Row | SMILES | logD
14 | C=C(C)c1c(OC)cc(Cc2cnc(N)nc2N)cc1OC | 3.07

same assay, conditions: octanol/water

Row | logD | SMILES
15 | -1.89 | COCCOc1ccc(Cc2cnc(N)nc2N)cc1OCCOC

Source: ChEMBL document CHEMBL1123483, “Inhibition of chicken liver dihydrofolate reductase by 5-(substituted benzyl)-2,4-diaminopyrimidines. A quantitative structure-activity relationship and graphics analysis” (J Med Chem, 1986)
